# Test results as given in US20120276577A1, “Method for Determining the Susceptibility of a Cell Strain to Drugs” (ASSISTANCE PUBLIQUE - HOPITAUX DE PARIS, priority 2009, published 2012).
# Where two headings read alike, the source gives them in different places.
# Assays:
# Candida albicans [1] = test: MALDI-TOF MS minimal profile change concentration (MPCC) determination; type: cell-based; conditions: for FCZ MPCCs: 15 h culture, MALDI-TOF MS
# Method: Fluconazole (FCZ) pure powder (Sigma Chemical CO., Saint-Louis, Mo., USA) was dissolved in pure water. Serial dilutions of drug (concentration ranged from 256 to 0.25 μg/ml), made into RPMI 1640 medium (with glutamine and without bicarbonate, Invitrogen) buffered with MOPS (0.165M) (Sigma Chemical CO., Saint-Louis, Mo., USA) and adjusted to pH 7 with sodium hydroxide (5N), were dispensed in 600 μl aliquots into sterile 24-well flat-bottomed microtiter plates.
# After cultivation during 48 h at 37° C. on Sabouraud agar medium, yeasts cells were transferred into RPMI 1640 medium (with glutamine but without bicarbonate, Invitrogen) buffered with MOPS (0.165M) (Sigma Chemical CO., Saint-Louis, Mo., USA), and adjusted to pH 7 with sodium hydroxide (5N). Then, 600 μl of RPMI with yeast (2.106 yeasts/imp were added to 600 μl of RPMI with FCZ into microtiter plates (final FCZ concentration ranged from 128 to 0.125 μg/ml), or in RPMI alone as negative control. Culture was performed in a 30° C. incubator for 15 hours, with continuous agitation.
# Yeast extraction was performed as follows: • (1) samples were centrifuged and the supernatant removed before the pellet was washed twice in pure water; • (2) the pellet was then resuspended in 300 μL of pure water, and 900 μL of ethanol were then added; • (3) after another round of centrifugation, 50 μL of 70% formic acid and 50 μL pure acetonitrile were added to the residual pellet and subsequent solution was repeatedly and thoroughly vortexed before a final centrifugation. Each centrifugation was performed at 10 000 rpm for 10 minutes at room temperature.
# The supernatant was distributed (0.5 μl droplet) in duplicate on a MALDI AnchorChip sample slide (Bruker-Daltonics, Bremen, Germany), then air-dried. The α-cyano-4-hydroxycinnamic acid (CHCA) matrix (Bruker-Daltonics), prepared at a concentration of 50 mg/ml in 50% acetonitrile and 50% water with 0.1% TFA, was sonicated for 5 min before being spotted (0.5 μl) over the dried sample. A DH5a Escherichia coil protein extract (Bruker-Daltonics) was deposited on the calibration spot of the Anchorchip for external calibration. MALDI analysis were performed on a Bruker Autoflex I MALDI TOF mass spectrometer with a nitrogen laser (337 nm) operating in linear mode with delayed extraction (260 ns) at 20 kV accelerating voltage. Each spectrum was automatically collected in the positive ion mode as an average of 500 laser shots (50 laser shots at 10 different spot positions). Laser energy was set just above the threshold for ion production. Mass range between 3,000 and 20,000 m/z (ratio mass/charge) was selected to collect the signals with the AutoXecute tool of flexControl acquisition software (Version 2.4; Bruker-Daltonics). Only peaks with a signal/noise ratio >3 were considered. […] For each cultivation condition, we collected mass spectra from 3 biological replicates and 2 technical replicates.
# Data obtained from the flex control acquisition software were a set of lists of mass/charge peaks and corresponding intensities, one list for each spectrum. For each FCZ concentration (11 FCZ concentrations and without FCZ), 6 spectra, obtained from 3 biological replicates tested in duplicate, were collected, so the whole initial set of data consisted of 72 spectra.
# Alignment was performed using a method based on the mean spectrum, using an approach similar to that recommended by Coombes et al. (Coombes K R, Baggerly K A, and Morris J S: Pre-Processing Mass Spectrometry Data. Fundamentals of Data Mining in Genomics and Proteomics, W Dubitzky, M Granzow, and D Berrar, eds. Kluwer, Boston, 79-99 (2007)).
# The mean spectrum of the 72 spots was computed, a simple peak detection algorithm was run on the mean spectrum, and a selection of the final peak locations was based on the mean intensity of the peak. For each spectrum, the peaks corresponding to the final peak locations were retained for the statistical analysis. […]
# Candida albicans [2] = conditions: CLSI, cited from earlier work
# [3] = C. albicans clinical isolate DSY281 (group A)
# [4] = C. albicans clinical isolate DSY284 (group A)
# [5] = C. albicans clinical isolate DSY289 (group F)
# [6] = C. albicans clinical isolate DSY290 (group G)
# [7] = C. albicans clinical isolate DSY292 (group G)
# [8] = C. albicans clinical isolate DSY 294 (group B)
# [9] = C. albicans clinical isolate DSY296 (group B)
# [10] = C. albicans clinical isolate DSY347 (group F)
# [11] = C. albicans clinical isolate DSY544 (group C)
# [12] = C. albicans clinical isolate DSY2260 (group D)
# [13] = C. albicans clinical isolate DSY2262 (group D)
# [14] = C. albicans clinical isolate DSY2284 (group H)
# [15] = C. albicans clinical isolate DSY2285 (group H)
# [16] = C. albicans clinical isolate DSY2321 (group E)
# [17] = C. albicans clinical isolate DSY2322 (group E)
# [18] = C. albicans clinical isolate DYS775 (group C)
# [19] = C. albicans reference strain ATCC 90028
compound,measurement,setting,value
"OC(Cn1cncn1)(Cn1cncn1)c1ccc(F)cc1F [FCZ, Fluconazole]",FCZ MPCCs,Candida albicans [1]; [3],0.5 µg/mL
same,FCZ MPCCs,Candida albicans [1]; [4],8 µg/mL
same,FCZ MPCCs,Candida albicans [1]; [5],128 µg/mL
same,FCZ MPCCs,Candida albicans [1]; [6],0.25 µg/mL
same,FCZ MPCCs,Candida albicans [1]; [7],128 µg/mL
same,FCZ MPCCs,Candida albicans [1]; [8],0.25 µg/mL
same,FCZ MPCCs,Candida albicans [1]; [9],128 µg/mL
same,FCZ MPCCs,Candida albicans [1]; [10],0.125 µg/mL
same,FCZ MPCCs,Candida albicans [1]; [11],0.25 µg/mL
same,FCZ MPCCs,Candida albicans [1]; [12],4 µg/mL
same,FCZ MPCCs,Candida albicans [1]; [13],32 µg/mL
same,FCZ MPCCs,Candida albicans [1]; [14],0.5 µg/mL
same,FCZ MPCCs,Candida albicans [1]; [15],16 µg/mL
same,FCZ MPCCs,Candida albicans [1]; [16],0.5 µg/mL
same,FCZ MPCCs,Candida albicans [1]; [17],16 µg/mL
same,FCZ MPCCs,Candida albicans [1]; [18],64 µg/mL
same,FCZ MPCCs,Candida albicans [1]; [19],0.25 µg/mL
same,mass spectrometry spectra compared with the control culture,"Candida albicans [1]; DSY2260 C. albicans, cultures exposed up to 2 μg/ml FCZ, 15 h",indistinguishable
same,FCZ MICs,Candida albicans [2]; [3],1 µg/mL
same,FCZ MICs,Candida albicans [2]; [4],32 µg/mL
same,FCZ MICs,Candida albicans [2]; [5],128 µg/mL
same,FCZ MICs,Candida albicans [2]; [6],0.5 µg/mL
same,FCZ MICs,Candida albicans [2]; [7],128 µg/mL
same,FCZ MICs,Candida albicans [2]; [8],0.25 µg/mL
same,FCZ MICs,Candida albicans [2]; [9],128 µg/mL
same,FCZ MICs,Candida albicans [2]; [10],0.25 µg/mL
same,FCZ MICs,Candida albicans [2]; [11],0.5 µg/mL
same,FCZ MICs,Candida albicans [2]; [12],8 µg/mL
same,FCZ MICs,Candida albicans [2]; [13],64 µg/mL
same,FCZ MICs,Candida albicans [2]; [14],0.25 µg/mL
same,FCZ MICs,Candida albicans [2]; [15],16 µg/mL
same,FCZ MICs,Candida albicans [2]; [16],0.25 µg/mL
same,FCZ MICs,Candida albicans [2]; [17],16 µg/mL
same,FCZ MICs,Candida albicans [2]; [18],128 µg/mL
same,FCZ MICs,Candida albicans [2]; [19],0.25 µg/mL
